Assay results published in ChEMBL document CHEMBL4219114, “Aralkyl selenoglycosides and related selenosugars in acetylated form activate protein phosphatase-1 and -2A” (Bioorg Med Chem, 2018).
The source made the active and inactive calls. No cut-off for these calls is given here.

Assays:
Oryctolagus cuniculus [1] = species: Oryctolagus cuniculus; assay: Activation of rabbit skeletal muscle PP1 catalytic subunit at 19 to 395 uM using [32P]MLC20 as substrate pretreated for 10 mins followed by substrate addition measured after 10 mins by scintillation counting method relative to control
Oryctolagus cuniculus [2] = species: Oryctolagus cuniculus; assay: Activation of rabbit skeletal muscle PP2A catalytic subunit at 19 to 395 uM using [32P]MLC20 as substrate pretreated for 10 mins followed by substrate addition measured after 10 mins by scintillation counting method relative to control
[3] = Activation of rabbit skeletal muscle PP1 catalytic subunit using [32P]MLC20 as substrate pretreated for 10 mins followed by substrate addition measured after 10 mins by scintillation counting method relative to control; parameters: species or system Oryctolagus cuniculus
[4] = Activation of rabbit skeletal muscle PP2A catalytic subunit using [32P]MLC20 as substrate pretreated for 10 mins followed by substrate addition measured after 10 mins by scintillation counting method relative to control; parameters: species or system Oryctolagus cuniculus
[5] = Inhibition of rabbit skeletal muscle PP1 catalytic subunit at 19 to 395 uM using [32P]MLC20 as substrate pretreated for 10 mins followed by substrate addition measured after 10 mins by scintillation counting method; parameters: species or system Oryctolagus cuniculus
[6] = Inhibition of rabbit skeletal muscle PP2A catalytic subunit at 19 to 395 uM using [32P]MLC20 as substrate pretreated for 10 mins followed by substrate addition measured after 10 mins by scintillation counting method relative to control; parameters: species or system Oryctolagus cuniculus
HeLa [7] = assay: Cytotoxicity against human HeLa cells assessed as reduction in cell viability at >200 uM after 24 hrs by Alamar blue assay; assay type: functional, cell-based
Oryctolagus cuniculus [8] = species: Oryctolagus cuniculus; assay: Activation of rabbit skeletal muscle PP1 catalytic subunit at 395 uM using [32P]MLC20 as substrate pretreated for 10 mins followed by substrate addition measured after 10 mins in presence of 10 to 25 uM MYPT1 (23 to 38 residues) peptide by scintillation counting method
Oryctolagus cuniculus [9] = species: Oryctolagus cuniculus; assay: Activation of rabbit skeletal muscle PP2A catalytic subunit at 395 uM using [32P]MLC20 as substrate pretreated for 10 mins followed by substrate addition measured after 10 mins in presence of 10 uM MYPT1 (23 to 38 residues) peptide by scintillation counting method relative to control
[10] = target: Serine/threonine-protein phosphatase PP1-beta catalytic subunit (Homo sapiens) (UniProt P62140); assay: Binding affinity to full length recombinant human N-terminal His6-tagged PP1cdelta expressed in Escherichia coli M15 assessed as inhibition of protein interaction with GST-tagged MYPT1 at 10 to 50 uM by surface plasmon resonance method
HeLa [11] = assay: Activation of PP1 catalytic subunit/PP2A catalytic subunit in human HeLa cells at >100 uM using [32P]MLC20 as substrate pretreated for 1 hr followed by substrate addition measured after 30 secs by scintillation counting method; assay type: cell-based
HeLa [12] = assay: Activation of PP1 catalytic subunit/PP2A catalytic subunit in human HeLa cells using [32P]MLC20 as substrate pretreated for 1 hr followed by substrate addition measured after 30 secs by scintillation counting method; assay type: cell-based
HeLa [13] = assay: Activation of PP1 catalytic subunit/PP2A catalytic subunit in human HeLa cells at 395 uM using [32P]MLC20 as substrate pretreated for 1 hr followed by substrate addition measured after 30 secs by scintillation counting method; assay type: cell-based

Sequence of Serine/threonine-protein phosphatase PP1-beta catalytic subunit (Homo sapiens) (P62140 whole entry): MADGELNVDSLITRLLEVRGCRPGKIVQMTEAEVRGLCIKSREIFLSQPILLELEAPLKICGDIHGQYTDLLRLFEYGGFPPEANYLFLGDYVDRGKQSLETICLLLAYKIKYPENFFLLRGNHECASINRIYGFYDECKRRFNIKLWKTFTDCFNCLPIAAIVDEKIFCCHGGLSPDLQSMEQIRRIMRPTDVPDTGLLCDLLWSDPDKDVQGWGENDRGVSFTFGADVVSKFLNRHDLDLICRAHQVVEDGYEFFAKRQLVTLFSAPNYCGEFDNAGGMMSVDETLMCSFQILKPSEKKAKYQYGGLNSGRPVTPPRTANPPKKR

EC50 [3] [µM] | EC50 [4] [µM] | SMILES | Activity (Oryctolagus cuniculus [1]) | Activity (Oryctolagus cuniculus [2]) | inhibition (INH) [5] | inhibition (INH) [6] | also measured
171 | 104 | CC(=O)OC[C@H]1O[C@@H]([Se]CCc2ccccc2)[C@H](OC(C)=O)[C@@H](OC(C)=O)[C@@H]1OC(C)=O | – | – | – | – | fold change (FC) (Oryctolagus cuniculus [1]): 4; fold change (FC) (Oryctolagus cuniculus [2]): 4
– | – | CC(=O)N[C@@H]1[C@@H](OC(C)=O)[C@H](OC(C)=O)[C@@H](COC(C)=O)O[C@H]1[Se]C(=O)c1ccc(C)cc1 | Active | Active | Active | Active | –
– | – | CC(=O)OC[C@H]1O[C@@H]([Se]C(=O)c2ccc(C)cc2)[C@H](OC(C)=O)[C@@H](OC(C)=O)[C@@H]1OC(C)=O | Active | Active | Active | Active | –
– | – | CC(=O)OC[C@H]1O[C@@H]([Se]Cc2ccccc2)[C@H](OC(C)=O)[C@@H](OC(C)=O)[C@@H]1OC(C)=O | Active | Active | – | – | Activity (HeLa [7]): Active
– | – | CC(=O)OC[C@H]1O[C@@H]([Se]C(=O)c2ccc(Cl)cc2)[C@H](OC(C)=O)[C@@H](OC(C)=O)[C@@H]1OC(C)=O | Active | Active | Active | Active | –
– | – | CC(=O)OC[C@H]1O[C@@H]([Se]C(=O)c2ccccc2)[C@H](OC(C)=O)[C@@H](OC(C)=O)[C@@H]1OC(C)=O | – | inactive | Active | Active | fold change (FC) (Oryctolagus cuniculus [1]): 2
– | – | CC(=O)OC[C@H]1O[C@@H]([Se]c2ccc([N+](=O)[O-])cc2[N+](=O)[O-])[C@H](OC(C)=O)[C@@H](OC(C)=O)[C@@H]1OC(C)=O | inactive | inactive | Active | Active | –
233 | 83.5 | CC(=O)OC[C@H]1O[C@@H]([Se]Cc2ccccc2C(F)(F)F)[C@H](OC(C)=O)[C@@H](OC(C)=O)[C@@H]1OC(C)=O | Active | Active | – | – | Activity (Oryctolagus cuniculus [8]): inactive; Activity (Oryctolagus cuniculus [9]): Active; Activity [10]: Active; Activity (HeLa [11]): Active; Activity (HeLa [7]): Active
– | – | CC(=O)N[C@@H]1[C@@H](OC(C)=O)[C@H](OC(C)=O)[C@@H](COC(C)=O)O[C@H]1[Se]c1ccc([N+](=O)[O-])cn1 | inactive | inactive | Active | Active | –
– | – | CC(=O)OC[C@H]1O[C@@H]([Se]Cc2ccc([N+](=O)[O-])cc2)[C@H](OC(C)=O)[C@@H](OC(C)=O)[C@@H]1OC(C)=O | inactive | inactive | Active | – | –
– | – | OC[C@H]1O[C@@H]([Se]Cc2ccccc2)[C@H](O)[C@@H](O)[C@@H]1O | inactive | inactive | – | – | Activity (HeLa [12]): inactive; Activity (HeLa [7]): Active
291 | 84.8 | CC(=O)OC[C@H]1O[C@@H]([Se]c2ccccc2)[C@H](OC(C)=O)[C@@H](OC(C)=O)[C@@H]1OC(C)=O | – | – | – | – | fold change (FC) (Oryctolagus cuniculus [1]): 4; fold change (FC) (Oryctolagus cuniculus [2]): 4
108 | 119 | CC(=O)OC[C@H]1O[C@@H]([Se]Cc2ccc(Br)cc2)[C@H](OC(C)=O)[C@@H](OC(C)=O)[C@@H]1OC(C)=O | Active | Active | – | – | Activity (Oryctolagus cuniculus [8]): inactive; Activity (Oryctolagus cuniculus [9]): Active; Activity [10]: Active; Activity (HeLa [13]): Active
– | – | OC[C@H]1O[C@@H]([Se]Cc2ccccc2C(F)(F)F)[C@H](O)[C@@H](O)[C@@H]1O | inactive | inactive | – | – | Activity (HeLa [12]): inactive; Activity (HeLa [7]): Active
– | – | CC(=O)OC[C@H]1O[C@@H]([Se]c2ccc([N+](=O)[O-])cn2)[C@H](OC(C)=O)[C@@H](OC(C)=O)[C@@H]1OC(C)=O | inactive | inactive | Active | Active | –
222 | 119 | COc1ccc(C[Se][C@@H]2O[C@H](COC(C)=O)[C@@H](OC(C)=O)[C@H](OC(C)=O)[C@H]2OC(C)=O)cc1 | Active | Active | – | – | –
